Literature values as cited in patent publication US20200206299A1, “INHIBITORS OF BETA-ARRESTIN-NEUROKININ 1 RECEPTOR INTERACTIONS FOR THE TREATMENT OF PAIN” (priority 2016, published 2020).

System: capsaicin-evoked hyperalgesia
Conditions: intrathecal MEK inhibitor; Ji et al. 2002 is cited

SMILES: N#CC(=C(/N)Sc1ccccc1N)/C(C#N)=C(\N)Sc1ccccc1N [U0126]
- capsaicin-evoked hyperalgesia: inhibited
